# Read-outs that look alike come from different tables or passages of the source.
# Legend:
# [1] = Drug stability in simulated intestinal fluid with pancreatin; type: in vitro ADME; settings: 37°C, read-out: t½ (converted)
# Method: (§1) The HPLC system consisted of a Waters 600 HPLC pump (Waters Corporation, Milford, MA, USA), equipped with a Waters 2996 photodiode array detector. The column was a Kinetex RP-C8 column (3.0 x 150 mm, 5 μm). The mobile phase consisted of 0.1% TFA in acetonitrile/0.1% TFA in 95% H2O and 5% acetonitrile 50:50, under isocratic conditions at a flow rate of 1 mL/min. The UV detector was set at a length of 220 nm.
# (§2) To assess enzymatic stability, hydrochloric buffer with pepsin (10 or 40 mg/mL) and phosphate buffer with pancreatin (10 or 40 mg/mL) were used. Buffer solution (250 μL) was preincubated at 37°C and 50 μL of drug stock solution (50 μM in ethanol and FASSIF 1:9) were added and shaken at 37°C and 650 rpm. Samples of 100 μL were withdrawn at various times and 100 µL of ice-cold acetonitrile containing 0.5 v/v% formic acid were added to stop enzymatic activity. Samples were vortexed and centrifuged at 2°C and 10000 rpm for 10 min. The drug content in the supernatant was analyzed by HPLC.
# pancreatin = test: as above; type: in vitro ADME; settings: 37°C
# Method: as §1, §2
# C. albicans ATCC 10231 = test: Broth microdilution MIC/MFC; type: cell-based; settings: Candida albicans, ATCC10231
# Method: (§3) Two Gram-positive (S. aureus ATCC 29213 and S. epidermidis ATCC 35984) and two Gram-negative (E. coli ATCC 8739 and P. aeruginosa ATCC 9027) strains, and one fungal strain (C. albicans ATCC 10231) were used for the detection of antibacterial activity of carvacrol, NAC, Ac-Cys(Allyl)-OH, and carvacrol codrugs 1–10. All tested compounds were dissolved in 20% DMSO to prepare the stock solution (100 mg/mL). The final concentration of DMSO in each well appeared to be not toxic for all studied microorganisms, as confirmed by the solvent control test included in the study.
# The MIC detection of C. albicans ATCC 10231 was performed using the broth microdilution method according to EUCAST guidelines in RPMI 1640 plus 2% glucose with a final inoculum of 1–5 x 10^5 CFU/mL for 24–48 h at 37°C. The Minimum Fungicidal Concentration (MFC) was determined as the lowest concentration of substances at which no fungal growth occurred on Sabouraud agar plates.
# (§4) Data were obtained from at least three independent experiments performed in duplicate. The susceptibility of the bacterial strains against ciprofloxacin was used as an internal standard during MIC determinations.
# [2] = Kinetics of enzymatic hydrolysis in plasma; type: in vitro ADME; settings: 37°C; for half-life at 40 µg/mL: pH 7.4, read-out: t½ (converted)
# Method: as §1
# The enzymatic hydrolysis was evaluated in human and rat plasma. […] A volume of 200 μL of this solution was added with pre-heated (37°C) plasma fractions (4 mL) previously diluted with 0.02 M phosphate buffer (pH 7.4) to give a final volume of 5 mL (80% plasma). Aliquots (100 μL) were taken at various times and deproteinized by mixing with 200 μL of 0.01 M HCl in methanol. After centrifugation for 5 min at 5000 × g, 10 μL of the supernatant layer were analysed by chromatography as described above. The amounts of remaining intact compound were plotted as a function of incubation time.
# Water solubility (HPLC) = type: physicochemical; settings: thermodynamic from solid, room temperature, mean of three experiments (SD)
# Method: as §1, with “nm. […] Then the mixture was filtered using a Millipore filter (0.45 μm) and the concentration of the compound in its saturated solution was determined by HPLC analysis.” for “nm.”
# [3] = tested on: S. epidermidis ATCC 35984; test: Broth microdilution MIC/MBC on planktonic cells; type: cell-based; settings: Staphylococcus epidermidis, ATCC35984
# Method: as §3
# (§5) The effects of carvacrol codrugs 1–10 and reference compounds on planktonic cells were evaluated by Minimum Inhibitory Concentration (MIC) and Minimum Bactericidal Concentration (MBC) determination using the broth microdilution method according to EUCAST guidelines. Bacterial suspensions, grown in Mueller–Hinton Broth (MHB) at logarithmic phase, were incubated on microtiter plates at a concentration of 5 x 10^5 CFU/mL, with several dilutions (0.07–40 mg/mL) for 24 h at 37°C. The MIC was defined as the lowest concentration of substances giving a complete inhibition of visible growth in comparison with a control well, and the MBC was determined as the lowest concentration at which no bacterial growth occurred on Mueller–Hinton Agar plates.
# as §4
# S. aureus ATCC 29213 = test: Broth microdilution MIC/MBC on planktonic cells; type: cell-based; settings: Staphylococcus aureus, ATCC29213
# Method: as §3, §5, §4
# P. aeruginosa ATCC 9027 = test: Broth microdilution MIC/MBC on planktonic cells; type: cell-based; settings: Pseudomonas aeruginosa, ATCC9027
# Method: as §3, §5, §4
# E. coli ATCC 8739 = test: Broth microdilution MIC/MBC on planktonic cells; type: cell-based; settings: Escherichia coli, ATCC8739
# Method: as §3, §5, §4
# [4] = SIF pH 7.4, pancreatin 10 mg/mL
structure (smiles),measurement,setting,value
"C=CCSC[C@H](NC(C)=O)C(=O)Oc1cc(C(C)C)ccc1C [codrug 4, N-Ac-Cys(Allyl)-CAR]",half-life at 8.3 µM,"[1]; simulated intestinal fluid with pancreatin 10 mg/mL, pH 7.4, SIF pH 7.4, pancreatin 10 mg/mL",330 min
same,half-life at 8.3 µM,"[1]; simulated intestinal fluid with pancreatin 40 mg/mL, pH 7.4, SIF pH 7.4, pancreatin 40 mg/mL",~60 min
same,kobs,pancreatin; [4],0.126 (± 0.003) h^-1
same,t½,pancreatin; [4],5.51 (± 0.13) h
same,kobs,"pancreatin; SIF pH 7.4, pancreatin 40 mg/mL",0.83 (± 0.02) h^-1
same,MIC,"C. albicans ATCC 10231; C. albicans ATCC 10231, 24–48 h at 37°C, read-out: MIC",1250 µg/mL
same,MFC,"C. albicans ATCC 10231; C. albicans ATCC 10231, read-out: MFC",1250 µg/mL
same,kobs,[2]; 80% human plasma,1.38 (± 0.03) h^-1
same,kobs,[2]; 80% rat plasma,1.38 (± 0.05) h^-1
same,half-life at 40 µg/mL,[2]; 80% human plasma,30 min
same,half-life at 40 µg/mL,[2]; 80% rat plasma,30 min
same,solubility at 15 min,Water solubility (HPLC),150 µg/mL
same,MIC,"[3]; S. epidermidis ATCC 35984, 24 h at 37°C, read-out: MIC",2500 µg/mL
same,MBC,"[3]; S. epidermidis ATCC 35984, read-out: MBC",2500 µg/mL
same,MIC,"S. aureus ATCC 29213; S. aureus ATCC 29213, 24 h at 37°C, read-out: MIC",2500 µg/mL
same,MBC,"S. aureus ATCC 29213; S. aureus ATCC 29213, read-out: MBC",2500 µg/mL
same,MIC,"P. aeruginosa ATCC 9027; P. aeruginosa ATCC 9027, 24 h at 37°C, read-out: MIC",5000 µg/mL
same,MBC,"P. aeruginosa ATCC 9027; P. aeruginosa ATCC 9027, read-out: MBC",10000 µg/mL
same,MIC,"E. coli ATCC 8739; E. coli ATCC 8739, 24 h at 37°C, read-out: MIC",2500 µg/mL
same,MBC,"E. coli ATCC 8739; E. coli ATCC 8739, read-out: MBC",2500 µg/mL

# Reference: PMC4393269, “Carvacrol Codrugs: A New Approach in the Antimicrobial Plan” (PLoS ONE, 2015)
